Consider four molecules from patent US9683009B2, “Bone-selective osteogenic oxysterol-bone targeting agents” (The Regents of the University of California, priority 2013, dated 2017).

Series [1] in a line: in vitro hydroxyapatite (HAP) binding assay. The settings on record: for % Binding to Hydroxyapatite: 20 μM analyte, HAP 50 mg/mL, 50 mM Tris-HCl pH 7.5, 20% DMSO, 10 minutes; for binding to HAP (in words): in vitro, estradiol at 20 μM. Here is the method:
An in vitro HAP binding assay was conducted as follows. A 1 mM solution of each analyte was made in 100% dimethylsulfoxide (DMSO). A further dilution was then made to form a 20 μM solution of each analyte in 50 mM Tris-HCl Buffer at pH 7.5 with 20% DMSO. […] The HAP concentration used was 50 mg/mL.
For each analyte, samples were prepared in triplicate. The control samples (1 mL of 20 μM analyte) were transferred into a microcentrifuge tube. To a second set of samples (1 mL of 20 μM analyte) in a microcentrifuge tube was added 50 mg of HAP. The samples were vortexed, gently mixed with inversion for 10 minutes at room temperature, and then centrifuged at 4,400 rpm for 2 minutes to sediment the HAP contained in the samples. The supernatant was transferred to another set of microcentrifuge tubes.
An electronic spectral scan (ultraviolet-visible) from 220-520 nm was obtained for each analyte using a Bio-Rad Smart-Spec 3000. The blank was 50 mM Tris-HCl Buffer, pH 7.5, 20% DMSO. The wavelength of maximum absorbance (λmax) was determined, and the extinction coefficient (ε) was calculated using the Beer-Lambert Law.
The absorbance of the samples incubated with HAP was measured at λmax and the molar concentration of the analyte was then determined using the Beer-Lambert Law and the previously calculated ε. The concentration of the analytes 17β-estradiol, Oxy149, Oxy153, and Oxy155 without and with contact with HAP is shown in FIG. 10.
The fraction of analyte absorbed to HAP for each sample was subsequently calculated using the following formula for % binding, (Ho−H)/Ho*100=% binding with Ho being the mean concentration of control samples and H being the mean calculated concentration of samples treated with HAP.

Series [2] relates to C3H10T1/2 cells. The experiment in a line: alkaline phosphatase activity in C3H10T1/2 cells after 4 days of treatment. The settings on record: 1 μM. The class given is cell-based. The method, then:
[drawing 19] (In Oxy133 the 6-hydroxyl group is more reactive toward succinic anhydride than the 3-hydroxyl.) The resulting conjugate, OXY149, retains most of the osteogenic activity of the parent Oxy133 in C3H10T1/2 cells determined by the level of induction of osteogenic differentiation marker, alkaline phosphatase activity after 4 days of treatment (Control: 2±1; Oxy133 (1 μM): 390±10; Oxy149 (1 μM): 100±12; Oxy149 (5 μM): 500±18; Oxy149 (10 μM); 480±12; Oxy149 (20 μM): 470±25). BTA-linker 1 can be attached via the 3- and/or 6-positions of OXY133 using tunable linker attachments.

A short description of series [3]: half-life in human liver microsomes. Type of series: in vitro ADME. The following applies: read-out: half-life in human liver microsomes (HLM). From the text:
Naturally-occurring oxysterols, 20(S)-hydroxycholesterol, 22(S)-hydroxycholesterol and 22(R)-hydroxycholesterol can be used as potential osteogenic agents (Kha; Richardson; Amantea). A series of potent osteogenic oxysterol analogues was identified, which are efficacious both in vitro and in vivo. Members of this family of semi-synthetic oxysterols induce robust bone formation and spine fusion in rats when applied locally between transverse processes via a collagen sponge (T. S. Johnson). The compound OXY133 is an analog in the series with enhanced osteogenic activity (FIG. 1) (Montgomery). Oxy133 can induce osteogenesis in cultured human primary mesenchymal stem cells and induce spine fusion in rats in an accelerated manner compared to other analogues. Oxy133 can induce robust osteogenesis in non-rodent models of bone disease such as rabbit spine fusion and rabbit calvarial defect models. Oxy133 is a drug development candidate for local administration with potential application in spine fusion and repair of non-union fractures. […] Furthermore, due to the possible mechanism of osteogenesis, a transient activation of the Hh-pathway in MSCs, increasing selectivity for bone tissue while minimizing the exposure to other tissues may be prudent. This can be accomplished by linking a bone targeting agent (BTA) to the oxysterol molecule that selectively delivers it to bone.
A general note: Microsomes from liver hold many membrane-bound enzymes, among them those of drug oxidation.

Series [4] has as its system M2-10B4 bone marrow stromal cells. The experiment in a line: osteogenic differentiation / ALP enzymatic activity in M2-10B4 bone marrow stromal cells. Type of series: cell-based. The following applies: M2-10B4 cells; for ALP Activity: ± SD; for EC50: read-out: EC50 based on activation of ALP. Here is the method: Osteogenic differentiation was assessed by the induction of alkaline phosphatase (ALP) enzymatic activity, as well as induced expression of osteogenic differentiation marker genes ALP, bone sialoprotein (BSP), and osterix (OSX).

In series [5] the test system is Hedgehog (Hh) signaling. As to the kind of experiment: Hedgehog signaling activation: expression of Hh target genes Ptch and HIP in M2-10B4 cells. Type of series: cell-based. The method, then:
The expression of Ptch gene in M2-10B4 cells in vitro 4 days after initial contact with each oxysterol at a concentration of 1 μM is shown in FIG. 8. The expression of HIP gene in M2-10B4 cells in vitro 4 days after initial contact with each oxysterol at a concentration of 1 μM is shown in FIG. 9.

Where [6] appears, read: oxysterol + cyclopamine (Cyc; 5 μM).

`C[C@]12CC[C@@H]3c4ccc(O)cc4CC[C@H]3[C@@H]1CC[C@@H]2O` [17β-estradiol, reference compound]: in series [1], the “% Binding to Hydroxyapatite” value is −1.95% and the “binding to HAP (in words)” value is listed as “no binding to HAP”.
On to `CCCCCC[C@](C)(O)[C@H]1CC[C@H]2[C@@H]3C[C@H](O)[C@H]4C[C@@H](O)CC[C@]4(C)[C@H]3CC[C@@]21C` [Oxy133, reference compound], for which the alkaline phosphatase activity in series [2] was found to be 390±10. Also, in series [3], the half-life was < 5 min. Besides, the “ALP Activity” value amounted to 714 ± 5 units/mg protein in series [4] (oxysterol 1 μM) and 31 ± 7 units/mg protein in series [4] (setting [6]).
In the case of `CCCCCCC(C)(O)C1CCC2C3CC(OC(=O)C(N)CC(=O)NCCOCCOCC(=O)Nc4ccc(OC)c(C(N)=O)c4O)C4CC(O)CCC4(C)C3CCC21C` (stereo not shown) [Oxy154], in series [5], the “activation of Hedgehog (Hh) signaling by induced expression of Ptch and HIP” value is given as “activate Hedgehog (Hh) signaling”. Further, in series [4], the “osteogenic differentiation (ALP activity, ALP, BSP, OSX gene expression)” value is given as “induce osteogenic differentiation” and the EC50 turned out to be 630 nM. In addition, the “ALP Activity” value in series [4] (oxysterol 1 μM) turned out to be 390 ± 68 units/mg protein. Further, the “ALP Activity” value in series [4] (setting [6]) is given as 18 ± 2 units/mg protein. In addition, the “binding to HAP (in words)” value in series [1] is on record as “can bind hydroxyapatite (HAP)”.
Take `CCCCCCC(C)(O)C1CCC2C3CC(OC(=O)C(N)CC(=O)NCCOCCOCC(=O)Nc4ccc(OC)c(C(N)=O)c4O)C4CC(OC(=O)C(N)CC(=O)NCCOCCOCC(=O)Nc5ccc(OC)c(C(N)=O)c5O)CCC4(C)C3CCC21C` (stereo not shown) [Oxy155]: the “activation of Hedgehog (Hh) signaling by induced expression of Ptch and HIP” value in series [5] is on record as “activate Hedgehog (Hh) signaling”. For the same molecule, in series [4], the “osteogenic differentiation (ALP activity, ALP, BSP, OSX gene expression)” value is reported as “induce osteogenic differentiation” and the EC50 was determined as 330 nM. Also, in series [4] (oxysterol 1 μM), the “ALP Activity” value turned out to be 582 ± 8 units/mg protein. Also, the “ALP Activity” value in series [4] (setting [6]) is reported as 39 ± 2 units/mg protein. Also, in series [1], the “% Binding to Hydroxyapatite” value worked out at 76.68% and the “binding to HAP (in words)” value is “can bind hydroxyapatite (HAP)”.

One may read the half-life as the time in which the quantity being followed falls by half. What is called EC50 is the concentration that produces a half-maximal response.
